# Laboratory results reported in ChEMBL document CHEMBL6109139, “Rational Design of the First Dual Agonist at Trace Amine-Associated Receptor 1 and 5-HT2C Receptors Based on Binding Pocket Similarity for the Treatment of Schizophrenia and Alzheimer's Disease-Related Psychosis” (J Med Chem, 2025).
# Columns and labels:
# [1] = target: T1, 5-hydroxytryptamine receptor 2C (Homo sapiens, UniProt P28335); test: Partial agonist activity at recombinant human 5-HT2CR expressed in HEK293 cells incubated for 2 hrs by FLIPR calcium assay; type: functional, cell-based
# T1 sequence (P28335 whole entry): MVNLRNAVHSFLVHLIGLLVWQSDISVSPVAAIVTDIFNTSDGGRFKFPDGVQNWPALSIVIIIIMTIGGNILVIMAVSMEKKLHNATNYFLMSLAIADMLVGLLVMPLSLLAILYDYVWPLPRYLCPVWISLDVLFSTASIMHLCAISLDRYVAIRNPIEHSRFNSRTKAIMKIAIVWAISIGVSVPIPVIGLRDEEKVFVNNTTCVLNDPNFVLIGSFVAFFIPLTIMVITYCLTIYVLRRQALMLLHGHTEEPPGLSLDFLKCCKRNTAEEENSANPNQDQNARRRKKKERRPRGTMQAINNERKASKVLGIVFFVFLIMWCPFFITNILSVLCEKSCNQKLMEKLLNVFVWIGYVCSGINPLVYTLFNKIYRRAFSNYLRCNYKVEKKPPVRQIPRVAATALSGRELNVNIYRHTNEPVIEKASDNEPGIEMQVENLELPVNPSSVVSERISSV
# [2] = Apparent permeability across apical to basolateral side in human Caco-2 cells at 2 uM by LC-MS/MS analysis; type: ADME, cell-based
# [3] = Efflux ratio of apparent permeability across apical to basolateral side in human Caco-2 cells at 2 uM by LC-MS/MS analysis; type: ADME, cell-based
# [4] = Metabolic stability in rat liver microsomes assessed as intrinsic clearance at 1 uM incubated for 60 mins by LC-MS/MS analysis; type: ADME, Microsome; details: read-out: CLH
# [5] = Metabolic stability in human liver microsomes assessed as intrinsic clearance at 1 uM incubated for 60 mins by LC-MS/MS analysis; type: ADME, Microsome; details: read-out: CLH
# [6] = Plasma protein binding in rat assessed as unbound fraction by LC-MS/MS analysis; type: ADME, cell-free
# [7] = Plasma protein binding in dog assessed as unbound fraction by LC-MS/MS analysis; type: ADME, cell-free, Canis lupus familiaris
# [8] = Plasma protein binding in human assessed as unbound fraction by LC-MS/MS analysis; type: ADME, cell-free
# Cytochrome P450 1A2 = Cytochrome P450 1A2 (Homo sapiens, UniProt P05177); test: Inhibition of CYP1A2 in human liver microsomes in presence of NADPH by LC-MS/MS analysis; type: ADME, Microsome
# Cytochrome P450 1A2, sequence (P05177 whole entry): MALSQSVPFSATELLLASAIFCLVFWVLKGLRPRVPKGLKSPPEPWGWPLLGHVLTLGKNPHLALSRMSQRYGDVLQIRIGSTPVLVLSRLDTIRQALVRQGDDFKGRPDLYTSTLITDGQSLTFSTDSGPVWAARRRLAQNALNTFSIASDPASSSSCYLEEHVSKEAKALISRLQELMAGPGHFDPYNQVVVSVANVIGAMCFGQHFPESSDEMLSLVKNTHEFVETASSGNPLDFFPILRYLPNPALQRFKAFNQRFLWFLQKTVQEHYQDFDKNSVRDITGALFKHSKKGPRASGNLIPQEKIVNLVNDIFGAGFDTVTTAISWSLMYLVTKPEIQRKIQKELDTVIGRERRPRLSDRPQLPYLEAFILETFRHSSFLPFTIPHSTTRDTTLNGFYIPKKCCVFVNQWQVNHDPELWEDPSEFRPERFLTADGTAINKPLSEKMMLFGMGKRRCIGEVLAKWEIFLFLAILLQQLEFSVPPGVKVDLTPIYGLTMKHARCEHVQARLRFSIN
# Cytochrome P450 2B6 = Cytochrome P450 2B6 (Homo sapiens, UniProt P20813); test: Inhibition of CYP2B6 in human liver microsomes in presence of NADPH by LC-MS/MS analysis; type: ADME, Microsome
# Cytochrome P450 2B6, sequence (P20813 whole entry): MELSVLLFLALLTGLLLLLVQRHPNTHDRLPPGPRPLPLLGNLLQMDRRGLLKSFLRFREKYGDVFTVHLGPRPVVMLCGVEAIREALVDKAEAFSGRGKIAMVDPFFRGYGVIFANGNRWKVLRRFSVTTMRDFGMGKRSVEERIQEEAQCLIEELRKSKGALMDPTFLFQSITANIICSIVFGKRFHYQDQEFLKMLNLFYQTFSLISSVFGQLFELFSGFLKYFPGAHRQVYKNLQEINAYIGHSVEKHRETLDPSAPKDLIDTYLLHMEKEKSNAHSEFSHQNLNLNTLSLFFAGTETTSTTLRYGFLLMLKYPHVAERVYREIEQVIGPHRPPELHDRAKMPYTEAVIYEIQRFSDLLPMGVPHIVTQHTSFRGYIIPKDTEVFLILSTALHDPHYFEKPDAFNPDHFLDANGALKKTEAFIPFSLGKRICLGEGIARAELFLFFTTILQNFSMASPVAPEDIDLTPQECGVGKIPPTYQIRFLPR
# Cytochrome P450 2C8 = Cytochrome P450 2C8 (Homo sapiens, UniProt P10632); test: Inhibition of CYP2C8 in human liver microsomes in presence of NADPH by LC-MS/MS analysis; type: ADME, Microsome
# Cytochrome P450 2C8, sequence (P10632 whole entry): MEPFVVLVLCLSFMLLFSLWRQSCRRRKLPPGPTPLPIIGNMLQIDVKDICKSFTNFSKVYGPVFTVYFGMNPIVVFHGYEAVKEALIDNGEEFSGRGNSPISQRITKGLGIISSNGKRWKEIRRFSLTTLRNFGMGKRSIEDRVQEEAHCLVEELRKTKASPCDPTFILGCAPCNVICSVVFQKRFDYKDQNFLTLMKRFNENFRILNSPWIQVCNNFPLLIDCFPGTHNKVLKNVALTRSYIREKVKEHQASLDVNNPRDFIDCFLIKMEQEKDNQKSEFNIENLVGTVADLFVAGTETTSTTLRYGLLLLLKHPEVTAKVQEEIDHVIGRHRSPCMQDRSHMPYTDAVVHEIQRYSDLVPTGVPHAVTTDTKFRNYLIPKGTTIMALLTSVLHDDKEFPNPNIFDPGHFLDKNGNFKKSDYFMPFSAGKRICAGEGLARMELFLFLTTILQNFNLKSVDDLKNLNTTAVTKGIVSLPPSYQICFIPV
# Cytochrome P450 2C9 = Cytochrome P450 2C9 (Homo sapiens, UniProt P11712); test: Inhibition of CYP2C9 in human liver microsomes in presence of NADPH by LC-MS/MS analysis; type: ADME, Microsome
# Cytochrome P450 2C9, sequence (P11712 whole entry): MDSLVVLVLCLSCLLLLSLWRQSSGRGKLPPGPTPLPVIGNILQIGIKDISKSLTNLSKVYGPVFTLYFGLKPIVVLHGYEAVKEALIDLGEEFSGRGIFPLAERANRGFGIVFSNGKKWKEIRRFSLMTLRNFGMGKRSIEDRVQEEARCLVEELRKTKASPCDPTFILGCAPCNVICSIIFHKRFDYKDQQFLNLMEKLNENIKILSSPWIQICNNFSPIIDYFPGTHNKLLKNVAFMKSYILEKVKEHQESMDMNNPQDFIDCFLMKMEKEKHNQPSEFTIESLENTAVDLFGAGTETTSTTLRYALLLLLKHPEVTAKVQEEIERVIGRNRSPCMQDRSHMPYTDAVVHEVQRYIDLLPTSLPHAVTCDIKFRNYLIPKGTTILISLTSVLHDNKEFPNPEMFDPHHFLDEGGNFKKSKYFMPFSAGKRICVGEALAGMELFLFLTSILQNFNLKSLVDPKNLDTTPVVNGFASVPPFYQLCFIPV
# Cytochrome P450 2C19 = Cytochrome P450 2C19 (Homo sapiens, UniProt P33261); test: Inhibition of CYP2C19 in human liver microsomes in presence of NADPH by LC-MS/MS analysis; type: ADME, Microsome
# Cytochrome P450 2C19, sequence (P33261 whole entry): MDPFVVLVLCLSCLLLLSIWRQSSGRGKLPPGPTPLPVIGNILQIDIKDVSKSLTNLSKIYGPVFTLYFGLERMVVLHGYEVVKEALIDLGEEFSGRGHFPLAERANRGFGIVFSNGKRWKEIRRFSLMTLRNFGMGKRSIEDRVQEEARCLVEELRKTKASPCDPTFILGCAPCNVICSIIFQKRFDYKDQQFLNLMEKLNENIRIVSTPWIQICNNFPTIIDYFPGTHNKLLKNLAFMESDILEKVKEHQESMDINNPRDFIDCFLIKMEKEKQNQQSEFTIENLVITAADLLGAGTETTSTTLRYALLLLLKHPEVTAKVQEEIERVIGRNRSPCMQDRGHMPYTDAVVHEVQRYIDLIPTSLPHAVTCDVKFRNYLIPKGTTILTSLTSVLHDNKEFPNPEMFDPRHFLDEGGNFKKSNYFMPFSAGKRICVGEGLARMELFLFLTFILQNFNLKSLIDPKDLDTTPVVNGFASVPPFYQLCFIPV
# [9] = Inhibition of CYP2D6 in human liver microsomes in presence of NADPH by LC-MS/MS analysis; type: ADME, Microsome
# Cytochrome P450 3A4 = Cytochrome P450 3A4 (Homo sapiens, UniProt P08684); test: Inhibition of CYP3A4 in human liver microsomes in presence of NADPH by LC-MS/MS analysis; type: ADME, Microsome
# Cytochrome P450 3A4, sequence (P08684 whole entry): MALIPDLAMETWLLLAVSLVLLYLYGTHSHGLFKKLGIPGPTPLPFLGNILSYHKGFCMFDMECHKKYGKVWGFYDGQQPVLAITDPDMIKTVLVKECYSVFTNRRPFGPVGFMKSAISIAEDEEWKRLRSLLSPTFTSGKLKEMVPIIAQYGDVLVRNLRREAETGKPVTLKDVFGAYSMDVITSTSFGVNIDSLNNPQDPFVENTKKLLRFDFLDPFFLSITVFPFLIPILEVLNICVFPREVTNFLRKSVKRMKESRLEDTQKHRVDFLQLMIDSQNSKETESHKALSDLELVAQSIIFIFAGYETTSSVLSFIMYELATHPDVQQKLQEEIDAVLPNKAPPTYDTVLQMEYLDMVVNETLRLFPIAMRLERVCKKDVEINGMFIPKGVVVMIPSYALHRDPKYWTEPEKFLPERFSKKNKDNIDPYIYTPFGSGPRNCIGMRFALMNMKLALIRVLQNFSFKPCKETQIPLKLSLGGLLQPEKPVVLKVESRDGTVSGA
# [10] = Drug uptake in male Sprague-Dawley rat brain assessed as parent compound remaining measured after 6 hrs; type: ADME, tissue-based; details: read-out: Activity
structure (smiles),measurement,setting,value
COc1ccsc1C1CNCCO1 (stereo in doubt; 25a),EC50,[1],4.39 µM
same,Papp A→B at 2 µM,[2],46 ×10⁻⁶ cm/s
same,efflux ratio at 2 µM,[3],0.6
same,CLint scaled at 1 µM,[4],< 13.5 mL/min/kg
same,CLint scaled at 1 µM,[5],< 6.8 mL/min/kg
same,fraction unbound,[6],0.872
same,fraction unbound,[7],0.73
same,fraction unbound,[8],0.747
same,IC50,Cytochrome P450 1A2,> 50 µM
same,IC50,Cytochrome P450 2B6,> 50 µM
same,IC50,Cytochrome P450 2C8,> 50 µM
same,IC50,Cytochrome P450 2C9,> 50 µM
same,IC50,Cytochrome P450 2C19,> 50 µM
same,IC50,[9],> 50 µM
same,IC50,Cytochrome P450 3A4,> 50 µM
same,remaining at 6 h,[10],< 20%
